The assay deals with aphids. Kind of assay: Root systemicity of fipronil with polymers: wheat plants in vermiculite drenched, infested with aphids, aphid population counted. The assay is classed as in vivo, aphids on wheat plants. The note with it: 4 days after infestation, relative to plants not treated with fipronil. The method, then:
To test the root systemicity of fipronil with polymers according to the invention, wheat plants in vermiculite were drenched with 20 ml fipronil/polymer (1:1 wt) solutions in Hoagland solution/acetone mixtures (0.6 v % acetone). Two fipronil and polymer concentrations were used, 3 ppm and 6 ppm. As reference fipronil solutions in Hoagland solution/acetone mixtures without polymer were used. Hoagland solution consists of the following ingredients:
0.25 v % of 1M KNO3 solution in water, 0.1 v % of 1 M MgSO4 solution in water, 0.05 v % of 1M KH2PO4 solution in water, 0.25 v % 1M Ca(NO3)2) solution in water, 0.05 v % of a trace solution consisting of 2.86 g/l H3BO3, 1.81 g/l MnCl2*4H2O, 0.22 g/l ZnSO4*7H2O, 0.08 g/l CuSO4*5H2O, 0.016 g/l MoO3 in water, 0.075 v % Sequestrene 138 Fe consisting of 30 g/l sodium ferric ethylenediamine di-(o-hydroxyphenylacetate) in water, 99.225 v % water sterilized and pH adjusted to 6-6.5 with NaOH.
The plants were then infested with aphids. After 4 days the aphid population on the wheat plants was counted. The results of fipronil and fipronil with polymer are related to the aphid population on plants that had not been treated with fipronil.

Each structure is given as a SMILES string.

`N#Cc1nn(-c2c(Cl)cc(C(F)(F)F)cc2Cl)c(N)c1[S+]([O-])C(F)(F)F` (stereo not shown) [Reference A, fipronil]: the Aphid population is, setting by setting: (Table 1, 3 ppm fipronil (and polymer, 1:1 wt)) 51%; (Table 1, 6 ppm fipronil (and polymer, 1:1 wt)) 23%; (Table 2, 3 ppm fipronil (and polymer, 1:1 wt)) 23%; (Table 2, 6 ppm fipronil (and polymer, 1:1 wt)) 12%.

The record behind these values is patent US20100204045A1, “Systemicity Enhancers” (BASF SE, priority 2007, published 2010).
